The values that follow are results of earlier work, collected in patent US7621907B2, “Implantable drug delivery system” (Alcon, Inc., priority 2002, dated 2009).

Counter-ions that a name gives are not always drawn.

The conditions of this data set: descriptive statement, no test described.

Consider `CC(C)NCC(O)COc1ccc(CCOCC2CC2)cc1` (centres unmarked) [betaxolol HCl], for which the water solubility result is “relatively high”. In the case of `NC(=O)Cc1cccc(C(=O)c2ccccc2)c1N` [nepafenac], the water solubility entry is listed as “relatively low”.
